Drawing on patent publication US20220033397A1, “PHARMACEUTICAL COMPOUNDS AND THEIR USE AS INHIBITORS OF UBIQUITIN SPECIFIC PROTEASE 19 (USP19)” (ALMAC DISCOVERY LIMITED, priority 2018, published 2022), this text covers IC50 for 23 compounds.

A value given as a limit tells only on which side of the number the result lay.

This experiment has as its target T1, Full-length USP19 (Homo sapiens, UniProt O94966).
T1 construct: Full-length USP19 was purchased from Boston Biochem (E-576); purchased Boston Biochem E-576
T1 sequence (O94966 1-1318): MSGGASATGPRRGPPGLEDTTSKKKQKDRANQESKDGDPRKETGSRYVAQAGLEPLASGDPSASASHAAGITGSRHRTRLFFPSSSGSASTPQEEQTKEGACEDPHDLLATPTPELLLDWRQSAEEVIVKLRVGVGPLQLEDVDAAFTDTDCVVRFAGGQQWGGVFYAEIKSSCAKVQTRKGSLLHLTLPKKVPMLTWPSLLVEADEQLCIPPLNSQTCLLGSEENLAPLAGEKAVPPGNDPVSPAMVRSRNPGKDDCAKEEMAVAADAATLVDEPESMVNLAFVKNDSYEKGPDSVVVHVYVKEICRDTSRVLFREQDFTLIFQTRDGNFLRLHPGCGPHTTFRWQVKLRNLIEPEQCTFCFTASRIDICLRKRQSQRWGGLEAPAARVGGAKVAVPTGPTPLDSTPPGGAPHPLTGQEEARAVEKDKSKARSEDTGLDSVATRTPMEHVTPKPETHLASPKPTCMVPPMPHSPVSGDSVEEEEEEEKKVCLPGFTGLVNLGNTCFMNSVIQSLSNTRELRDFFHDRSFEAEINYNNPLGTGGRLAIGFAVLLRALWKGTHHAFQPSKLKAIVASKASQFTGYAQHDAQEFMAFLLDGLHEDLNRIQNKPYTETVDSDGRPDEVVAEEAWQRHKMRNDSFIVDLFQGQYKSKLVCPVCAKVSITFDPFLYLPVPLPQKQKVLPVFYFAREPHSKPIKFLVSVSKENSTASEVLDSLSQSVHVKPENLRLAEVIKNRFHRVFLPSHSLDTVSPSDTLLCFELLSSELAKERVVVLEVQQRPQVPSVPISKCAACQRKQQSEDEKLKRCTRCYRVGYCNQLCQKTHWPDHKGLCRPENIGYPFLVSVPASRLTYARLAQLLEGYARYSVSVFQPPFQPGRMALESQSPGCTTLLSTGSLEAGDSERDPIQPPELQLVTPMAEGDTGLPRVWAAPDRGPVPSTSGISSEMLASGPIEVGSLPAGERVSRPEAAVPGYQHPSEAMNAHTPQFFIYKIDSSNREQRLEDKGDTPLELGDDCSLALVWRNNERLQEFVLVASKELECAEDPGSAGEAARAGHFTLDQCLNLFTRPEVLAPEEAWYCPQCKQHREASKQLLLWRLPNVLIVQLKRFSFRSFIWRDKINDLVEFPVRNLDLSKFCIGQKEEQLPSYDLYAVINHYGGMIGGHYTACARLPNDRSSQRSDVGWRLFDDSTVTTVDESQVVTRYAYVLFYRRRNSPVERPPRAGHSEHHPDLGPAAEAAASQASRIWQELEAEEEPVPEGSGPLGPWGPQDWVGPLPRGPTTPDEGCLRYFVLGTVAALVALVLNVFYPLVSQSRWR
The experiment can be described thus: USP19 fluorescence polarisation (FP) homogeneous assay with Ubiquitin-Lys-TAMRA substrate. In kind it is biochemical. As to conditions: 2.5 nM USP19, 30 min pre-incubation, average of at least two duplicate experiments. In a few lines:
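Full-length USP19 preincubated 30 min at RT with inhibitor (200 μM to 2 μM series, 8–18 points) before adding 500 nM Ubiquitin-Lys-TAMRA substrate.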

For the compound `C[C@H](CC(F)(F)F)C(=O)N1CCC(O)(Cn2ccc3nc(N4CCNCC4)ncc3c2=O)C2(CCCC2)C1` (stereo partly drawn) [Example 63, 6-((10-Hydroxy-7-((R)-4,4,4-trifluoro-2-methylbutanoyl)-7-azaspiro[4.5]decan-10-yl)methyl)-2-(piperazin-1-yl)pyrido[4,3-d]pyrimidin-5(6H)-one], the IC50 – broadly, the concentration that gives 50% inhibition – lay in the range of 0.5 to 5 µM.
For the compound `O=C(NC(C(F)(F)F)C(F)(F)F)N1CC[C@@](O)(Cn2cnc(-c3ccccc3)cc2=O)C2(CCCC2)C1` [Example 308, (S)—N-(1,1,1,3,3,3-Hexafluoropropan-2-yl)-10-hydroxy-10-((6-oxo-4-phenylpyrimidin-1(6H)-yl)methyl)-7-azaspiro[4.5]decane-7-carboxamide], the IC50 was 0.5 to 5 µM.
In the case of `Cc1ccc(-c2cc(=O)n(C[C@]3(O)CCN(C(=O)N4CCNC[C@H]4c4ccccc4)CC34CCCC4)cn2)cc1` [Example 342, 3-(((S)-10-Hydroxy-7-((R)-2-phenylpiperazine-1-carbonyl)-7-azaspiro[4.5]decan-10-yl)methyl)-6-(p-tolyl)pyrimidin-4(3H)-one] it was below 0.5 µM.
As for `C[C@H](CC(F)(F)F)C(=O)N1CCC(O)(CN2CCN(C3CCC(C)(C)CC3)CC2=O)C2(CCCC2)C1` (stereo partly drawn) [Example 116, 4-(4,4-Dimethylcyclohexyl)-1-((10-hydroxy-7-((R)-4,4,4-trifluoro-2-methylbutanoyl)-7-azaspiro[4.5]decan-10-yl)methyl)Piperazin-2-one], the figure is 5 to 50 µM; as for `C[C@H](CC(F)(F)F)C(=O)N1CCC(O)(Cn2cnc3cc(F)c(Cl)cc3c2=O)C2(CCCC2)C1` (stereo partly drawn) [Example 149, 6-Chloro-7-fluoro-3-((10-hydroxy-7-((R)-4,4,4-trifluoro-2-methylbutanoyl)-7-azaspiro[4.5]decan-10-yl)methyl)quinazolin-4(3H)-one], 5 to 50 µM; as for `N#CCc1ccc(CNC(=O)N2CCC(O)(Cn3cnc(-c4ccccc4)cc3=O)C3(CCCC3)C2)cc1` (centres unmarked) [Example 258, N-(4-(Cyanomethyl)benzyl)-10-hydroxy-10-((6-oxo-4-phenylpyrimidin-1(6H)-yl)methyl)-7-azaspiro[4.5]decane-7-carboxamide], 5 to 50 µM.
As for `O=C(N1CCC(O)(Cn2ccncc2=O)C2(CCCC2)C1)N1CCOC[C@H]1c1ccccc1` (stereo partly drawn) [Example 90, 1-((10-Hydroxy-7-((R)-3-phenylmorpholine-4-carbonyl)-7-azaspiro[4.5]decan-10-yl)methyl)pyrazin-2(1H)-one], the figure is 0.5 to 5 µM.
Consider `COc1cc2ccn(CC3(O)CCN(C(=O)[C@H](C)CC(F)(F)F)CC34CCCC4)c(=O)c2cc1OC` (stereo partly drawn) [Example 140, 2-((10-Hydroxy-7-((R)-4,4,4-trifluoro-2-methylbutanoyl)-7-azaspiro[4.5]decan-10-yl)methyl)-6,7-dimethoxyisoquinolin-1(2H)-one], for which the IC50 is 50 to 250 µM.
In the case of `O=C(N1CC[C@@](O)(Cn2cnc(N3CCC(F)(F)CC3)cc2=O)C2(CCCC2)C1)N1CCNC[C@H]1c1ccccc1` [Example 351, 6-(4,4-Difluoro-piperidin-1-yl)-3-(((S)-10-hydroxy-7-((R)-2-phenylpiperazine-1-carbonyl)-7-aza-spiro[4.5]decan-10-yl)methyl)pyrimidin-4(3H)-one] it was below 0.5 µM.
In the case of `O=C(N1CCC(C(F)(F)F)C1)N1CC[C@@](O)(Cn2cnc(-c3ccccc3)cc2=O)C2(CCCC2)C1` (stereo partly drawn) [Example 227, 3-(((10S)-10-Hydroxy-7-(3-(trifluoromethyl)pyrrolidine-1-carbonyl)-7-azaspiro[4.5]decan-10-yl)methyl)-6-phenylpyrimidin-4(3H)-one] it was 0.5 to 5 µM; in that of `O=C(NCc1ccccn1)N1CCC(O)(Cn2cnc(-c3ccccc3)cc2=O)C2(CCCC2)C1` (centres unmarked) [Example 197, 10-Hydroxy-10-((6-oxo-4-phenylpyrimidin-1(6H)-yl)methyl)-N-(pyridin-2-ylmethyl)-7-azaspiro[4.5]decane-7-carboxamide], 50 to 250 µM.
For the compound `CSc1ncc2c(=O)n(CC3(O)CCN(C(=O)[C@H](C)CC4CCCCC4)CC34CCCC4)n(C)c2n1` (stereo partly drawn) [Example 54, 2-((7-((R)-3-Cyclohexyl-2-methylpropanoyl)-10-hydroxy-7-azaspiro[4.5]decan-10-yl)methyl)-1-methyl-6-(methylthio)-1,2-dihydro-3H-pyrazolo[3,4-d]pyrimidin-3-one], the IC50 is below 0.5 µM.
In the case of `COc1ccccc1-c1cc(=O)n(C[C@]2(O)CCN(C(=O)N3CCNC[C@H]3c3ccccc3)CC23CCCC3)cn1` [Example 317, 3-(((S)-10-Hydroxy-7-((R)-2-phenylpiperazine-1-carbonyl)-7-azaspiro[4.5]decan-10-yl)methyl)-6-(2-methoxyphenyl)pyrimidin-4(3H)-one] it was below 0.5 µM; in that of `CC(=O)N1CCN(CC2(O)CCN(C(=O)NCc3ccccc3)CC23CCCC3)C(=O)C1` (centres unmarked) [Example 111, 10-((4-Acetyl-2-oxopiperazin-1-yl)methyl)-N-benzyl-10-hydroxy-7-azaspiro[4.5]decane-7-carboxamide], 5 to 50 µM; in that of `C[C@H](CC1CCCCC1)C(=O)N1CCC(O)(Cn2cc(-c3ccccc3)ncc2=O)C(C)(C)C1` (stereo partly drawn) [Example 2, 1-((1-((R)-3-Cyclohexyl-2-methylpropanoyl)-4-hydroxy-3,3-dimethylpiperidin-4-yl)methyl)-5-phenylpyrazin-2(1H)-one], 0.5 to 5 µM.
As for `O=C(N1CC[C@@](O)(Cn2cnc(-c3ccc4c(c3)CCO4)cc2=O)C2(CCCC2)C1)N1CCNC[C@H]1c1ccccc1` [Example 346, 6-(2,3-Dihydrobenzofuran-5-yl)-3-(((S)-10-hydroxy-7-((R)-2-phenylpiperazine-1-carbonyl)-7-aza-spiro[4.5]decan-10-yl)methyl)pyrimidin-4(3H)-one], the figure is below 0.5 µM; as for `C[C@H](CC1CCCCC1)C(=O)N1CCC(O)(Cn2cc(S(C)(=N)=O)c(Cl)cc2=O)C(C)(C)C1` (stereo partly drawn) [Example 67, 4-Chloro-1-((1-((R)-3-cyclohexyl-2-methylpropanoyl)-4-hydroxy-3,3-dimethylpiperidin-4-yl)methyl)-5-(S-methylsulfonimidoyl)pyridin-2(1H)-one], 0.5 to 5 µM.
On to `CN(C)C(=O)c1cn(CC2(O)CCN(C(=O)N(C)C)CC23CCCC3)c(=O)cc1-c1ccccc1` (centres unmarked) [Example 86, 10-((5-(Dimethylcarbamoyl)-2-oxo-4-phenylpyridin-1(2H)-yl)methyl)-10-hydroxy-N,N-dimethyl-7-azaspiro[4.5]decane-7-carboxamide], for which the IC50 fell in the range of 5 to 50 µM.
In the case of `C[C@H](CC1CCCCC1)C(=O)N1CCC(O)(Cn2nc3ccccn3c2=O)C(C)(C)C1` (stereo partly drawn) [Example 51, 2-((1-((R)-3-Cyclohexyl-2-methylpropanoyl)-4-hydroxy-3,3-dimethylpiperidin-4-yl)methyl)-[1,2,4]triazolo[4,3-a]pyridin-3(2H)-one] it was 5 to 50 µM; in that of `C[C@H](CC(F)(F)F)C(=O)N1CCC(O)(Cn2cnc3ccc(Cl)cc3c2=O)C2(CCCC2)C1` (stereo partly drawn) [Example 147, 6-Chloro-3-((10-hydroxy-7-((R)-4,4,4-trifluoro-2-methylbutanoyl)-7-azaspiro[4.5]decan-10-yl)methyl)quinazolin-4(3H)-one], 0.5 to 5 µM.
In the case of `C[C@H](CC1CCCCC1)C(=O)N1CCC(O)(Cn2cc(S(C)(=N)=O)c(-c3ccccc3)cc2=O)C2(CCCC2)C1` (stereo partly drawn) [Example 74, 1-((7-((R)-3-Cyclohexyl-2-methylpropanoyl)-10-hydroxy-7-azaspiro[4.5]decan-10-yl)methyl)-5-(S-methylsulfonimidoyl)-4-phenylpyridin-2(1H)-one] it was below 0.5 µM; in that of `O=C(NCc1ccccc1)N1CCC(O)(Cn2cnc(Cl)cc2=O)C2(CCCC2)C1` (centres unmarked) [Example 198, N-Benzyl-10-((4-chloro-6-oxopyrimidin-1(6H)-yl)methyl)-10-hydroxy-7-azaspiro[4.5]decane-7-carboxamide], 50 to 250 µM; in that of `O=C(N1CC[C@@](O)(Cn2ccc(C3CC3)cc2=O)C2(CCCC2)C1)N1CCNC[C@H]1c1ccccc1` [Example 327, 4-Cyclopropyl-1-(((S)-10-hydroxy-7-((R)-2-phenylpiperazine-1-carbonyl)-7-azaspiro[4.5]decan-10-yl)methyl)pyridin-2(1H)-one], below 0.5 µM.
